Consider six compounds from ChEMBL document CHEMBL3044565, “Pharmacopore hypothesis generation of BACE-1 inhibitors and pharmacophore-driven identification of potent multi-target neuroprotective agents” (Med Chem Res, 2012).

Experiment [1] addresses T1, Beta-secretase 1 (Homo sapiens, UniProt P56817). As to the kind of experiment: Inhibition of BACE1 (unknown origin) at 10 ug/ml after 1 hr by FRET assay.
Experiment [2] concerns the target T1, Beta-secretase 1. In words: Inhibition of BACE1 (unknown origin).
Experiment [3] has as its target T1, Beta-secretase 1. As to the kind of experiment: Inhibition of Homo sapiens (human) Beta-secretase 1.
The nature of experiment [4]: Neuroprotective activity in Homo sapiens (human) SH-SY5Y cells assessed as reduction of amyloid beta-induced cell death at 10 ug/ml inubated for 1 hr prior to amyloid beta induction measured after 48 hr by MTT assay. Format: functional. Further details: scale not given: the % may be the effect or the level left. For orientation: Formazan colour is commonly taken as a measure of viable cells.

The structures appear in SMILES notation. *1 amine or outer side, *2 acyl side, *3 side chain or, on linkers, in order; H or OH if unused. Where a SMILES comes first, the peptide text is derived from it. [ ]: non-standard residue; d: D form. LeuΨ(S-CHOHCH2)Ala = CC(C)C[C@H](N[*:1])[C@@H](O)C[C@@H](C)C(=O)[*:2]

T1 sequence (P56817 whole entry): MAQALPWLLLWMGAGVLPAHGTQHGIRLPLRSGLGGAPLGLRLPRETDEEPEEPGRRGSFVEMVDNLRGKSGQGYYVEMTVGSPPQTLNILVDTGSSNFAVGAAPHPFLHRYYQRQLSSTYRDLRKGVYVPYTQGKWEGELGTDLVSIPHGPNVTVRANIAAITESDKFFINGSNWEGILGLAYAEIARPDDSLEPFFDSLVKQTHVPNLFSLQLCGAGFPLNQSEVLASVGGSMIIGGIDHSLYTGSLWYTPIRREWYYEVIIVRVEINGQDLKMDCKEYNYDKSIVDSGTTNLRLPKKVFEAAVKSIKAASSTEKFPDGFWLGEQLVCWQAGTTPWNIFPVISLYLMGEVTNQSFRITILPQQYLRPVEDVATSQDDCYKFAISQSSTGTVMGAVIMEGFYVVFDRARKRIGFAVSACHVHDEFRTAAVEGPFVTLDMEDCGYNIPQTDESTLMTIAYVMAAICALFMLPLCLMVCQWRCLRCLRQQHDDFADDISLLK

Usually inhibition stands for how much of the control response was suppressed. `O=C(/C=C/c1ccccc1)Nc1nc(-c2ccccc2)cs1`: in experiment [1], the inhibition is 23.6%.
By Ki is commonly meant the equilibrium dissociation constant of an inhibitor or competing ligand from its target. The IC50 is the concentration that inhibits the measured activity by half. Regarding `CC(C)C[C@H](NC(=O)[C@H](CC(N)=O)NC(=O)[C@@H](NC(=O)[C@@H](N)CC(=O)O)C(C)C)[C@@H](O)C[C@@H](C)C(=O)N[C@@H](C)C(=O)N[C@@H](CC(=O)O)C(=O)N[C@@H](Cc1ccccc1)C(=O)O` (H-DVN[LeuΨ(S-CHOHCH2)Ala]ADF-OH), the Ki in experiment [2] amounted to 1.6 nM. In experiment [3], the IC50 came to 2 nM.
For the compound `CCOC(=O)CCC(=O)NC1=NC2CCCCC2S1` (stereo not given), in experiment [4], the Activity was determined as 26.1%. For the same compound, in experiment [1], the inhibition is 26.7%.
With `O=C(Nc1nc(-c2ccccc2)cs1)c1ccncc1`, the Activity in experiment [4] was determined as 8.2%. Moreover, the inhibition in experiment [1] was 29.1%.
With `COc1cc(/C=C/C(=O)Nc2nc(-c3ccccc3)cs2)cc(OC)c1`, the inhibition in experiment [1] turned out to be 24.5%.
Take `CCOC(=O)CCC(=O)Nc1nc(-c2ccccc2)cs1`: the Activity in experiment [4] is recorded as 45.5%. In addition, the inhibition in experiment [1] came out at 31.8%.
